These results are taken from patent US9062041B2 (Bayer Intellectual Property GmbH, priority 2011, dated 2015).

Molecules are shown by their SMILES.

Holding throughout (format): cell-based
The target of assay [1] is EP4 subtype of the human PGE2 receptor (Homo sapiens, UniProt P35408). The assay can be described thus: cAMP antagonism test on the human EP4 receptor (HTRF cAMP detection). The conditions noted are these: selectivity towards hEP4, IC50 measured by cAMP antagonism test. In outline:
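Cells expressing human EP4 preincubated 20 min at RT with compound (0.8 nM–16.5 μM), then stimulated with PGE2 (0.3 nM in 3× solution, with IBMX) 60 min at RT. After lysis, cAMP measured by HTRF competition (665/620 nm ratio); antagonism seen as rise in FRET signal.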
A general note: In TR-FRET formats the signal depends on donor and acceptor labels being close together.

Assay [2] addresses EP2 subtype of the human PGE2 receptor (Homo sapiens, UniProt P43116). Kind of assay: cAMP antagonism test on the human EP2 receptor (HTRF cAMP detection). The conditions noted are these: hEP2 receptor, read-out: Antagonism hEP2 IC50. Put shortly: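 Cells expressing human EP2 preincubated 20 min at RT with compound (0.8 nM–16.5 μM), then stimulated 60 min with PGE2 (3× solution 1.5 nM) in PBS-IBMX. After 20 min lysis, cAMP measured by competitive HTRF with cAMP-d2 and Eu cryptate anti-cAMP antibody (665/620 nm ratio).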

The next assay concerns the target T1, human PGD receptor (Homo sapiens, UniProt Q13258).
T1 sequence (Q13258 1-359): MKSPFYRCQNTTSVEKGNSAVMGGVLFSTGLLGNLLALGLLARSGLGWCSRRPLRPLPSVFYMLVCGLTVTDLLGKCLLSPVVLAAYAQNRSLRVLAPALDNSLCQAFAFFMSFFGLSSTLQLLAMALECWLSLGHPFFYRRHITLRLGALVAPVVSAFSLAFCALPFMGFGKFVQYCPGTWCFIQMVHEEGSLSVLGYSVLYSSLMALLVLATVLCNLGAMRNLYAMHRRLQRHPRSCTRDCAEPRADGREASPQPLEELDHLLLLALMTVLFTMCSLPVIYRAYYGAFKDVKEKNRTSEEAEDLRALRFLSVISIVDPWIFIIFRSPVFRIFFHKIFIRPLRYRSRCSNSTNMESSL
The assay can be described thus: cAMP antagonism test on the human prostaglandin D receptor (HTRF cAMP detection). The conditions noted are these: selectivity towards hDP, IC50 measured by cAMP antagonism test. In outline: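 Cells pre-mixed with cAMP-d2 were preincubated with compound (0.8 nM–16.5 μM) for 20 min at RT, then stimulated with 3× PGD2 solution (6 nM, in PBS-IBMX) for 30 min at RT. After lysis (20 min), HTRF read at 665/620 nm; antagonism seen as rise in FRET ratio.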

EP2 subtype of the human PGE2 receptor, sequence (P43116 whole entry): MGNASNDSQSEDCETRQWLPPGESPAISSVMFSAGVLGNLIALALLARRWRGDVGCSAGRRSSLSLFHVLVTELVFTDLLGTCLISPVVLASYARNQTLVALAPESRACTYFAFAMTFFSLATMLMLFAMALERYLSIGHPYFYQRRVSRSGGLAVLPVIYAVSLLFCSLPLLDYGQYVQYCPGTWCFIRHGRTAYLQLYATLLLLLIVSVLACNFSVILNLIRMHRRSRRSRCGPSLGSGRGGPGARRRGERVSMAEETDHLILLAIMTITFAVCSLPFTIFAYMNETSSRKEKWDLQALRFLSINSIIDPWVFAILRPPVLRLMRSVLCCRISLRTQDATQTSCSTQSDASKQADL
EP4 subtype of the human PGE2 receptor, sequence (P35408 whole entry): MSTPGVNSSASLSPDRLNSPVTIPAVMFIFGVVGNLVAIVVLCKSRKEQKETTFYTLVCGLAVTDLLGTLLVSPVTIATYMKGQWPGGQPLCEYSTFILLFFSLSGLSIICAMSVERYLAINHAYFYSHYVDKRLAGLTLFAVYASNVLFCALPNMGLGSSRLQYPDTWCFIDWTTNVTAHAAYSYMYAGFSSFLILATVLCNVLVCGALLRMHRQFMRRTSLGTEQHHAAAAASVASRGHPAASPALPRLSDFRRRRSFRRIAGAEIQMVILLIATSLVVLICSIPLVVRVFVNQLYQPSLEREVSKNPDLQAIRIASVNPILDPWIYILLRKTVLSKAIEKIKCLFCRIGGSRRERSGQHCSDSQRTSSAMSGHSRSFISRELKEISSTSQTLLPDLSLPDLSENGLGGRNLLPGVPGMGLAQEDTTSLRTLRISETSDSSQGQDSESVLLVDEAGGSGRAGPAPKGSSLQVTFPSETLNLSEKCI

For orientation: IC50 means the concentration at which inhibition is half-maximal. Regarding `Cc1c(C(=O)NCC2CCCCO2)ccc2nn(CC3CCN(C(=O)c4ccc(Cl)cc4)CC3)cc12` (single isomer, unassigned) [Example 241, (S or R)-2-{[1-(4-chlorobenzoyl)piperidin-4-yl]methyl}-4-methyl-N-(3,4,5,6-tetrahydro-2H-pyran-2-ylmethyl)-2H-indazol-5-carboxamide], in assay [1], the “Selectivity hEP2/hEP4” value is on record as “xxx (xxx > 100)”. Moreover, the IC50 in assay [2] turned out to be 9.03 nM. Further, the “Selectivity hEP2/hDP” value on human PGD receptor was “xxx (xxx > 100)”.

In the case of `COCCNC(=O)c1ccc2nn(CC3CCN(C(=O)c4ccc(Oc5cccc(F)c5)cc4)CC3)cc2c1C` [Example 361, 2-({1-[4-(3-fluorophenoxy)benzoyl]piperidin-4-yl}methyl)-N-(2-methoxyethyl)-4-methyl-2H-indazol-5-carboxamide], the “Selectivity hEP2/hEP4” value in assay [1] was “xxx (xxx > 100)”. In assay [2], the concentration for half-maximal inhibition (IC50) was 5.11 nM. Also, the “Selectivity hEP2/hDP” value at human PGD receptor is “xxx (xxx > 100)”.

On to `Cc1c(C(=O)NCCN2CCOCC2)ccc2nn(CC3CN(C(=O)c4ccc(Cl)cc4)C3)cc12` [Example 128, 2-{[1-(4-chlorobenzoyl)azetidin-3-yl]methyl}-4-methyl-N-(2-morpholinoethyl)-2H-indazol-5-carboxamide], for which the “Selectivity hEP2/hEP4” value in assay [1] was “xx (xx: 10-100)”. In addition, in assay [2], the IC50 worked out at 471 nM. Moreover, the “Selectivity hEP2/hDP” value on human PGD receptor is “xx (xx: 10-100)”.

Consider `COCCNC(=O)c1ccc2nn(CC3CCN(C(=O)c4ccc(-c5ccc(OC)cc5)cc4F)CC3)cc2c1C` [Example 43, 2-({1-[(3-fluoro-4′-methoxybiphenyl-4-yl)carbonyl]piperidin-4-yl}methyl)-N-(2-methoxyethyl)-4-methyl-2H-indazol-5-carboxamide], for which the “Selectivity hEP2/hEP4” value in assay [1] was “xxx (xxx > 100)”. The IC50 in assay [2] amounted to 4.82 nM. Besides, the “Selectivity hEP2/hDP” value on human PGD receptor is listed as “xxx (xxx > 100)”.

As for `Cc1c(C(=O)NCC(F)(F)F)ccc2nn(CC3CCN(C(=O)c4cc5ccccc5n4C)CC3)cc12` [Example 290, 4-methyl-2-({1-[(1-methyl-1H-indol-2-yl)carbonyl]piperidin-4-yl}methyl)-N-(2,2,2-trifluoroethyl)-2H-indazol-5-carboxamide], in assay [1], the “Selectivity hEP2/hEP4” value is recorded as “xxx (xxx > 100)”. Besides, the IC50 in assay [2] stood at 42.6 nM. Further, on human PGD receptor, the “Selectivity hEP2/hDP” value is “xxx (xxx > 100)”.

On to `COCCNC(=O)c1ccc2nn(CC3CCN(C(=O)c4ccc(Oc5ccc(C#N)cn5)cc4)CC3)cc2c1C` [Example 356, 2-[(1-{4-[(5-cyanopyridin-2-yl)oxy]benzoyl}piperidin-4-yl)methyl]-N-(2-methoxyethyl)-4-methyl-2H-indazol-5-carboxamide], for which the “Selectivity hEP2/hEP4” value in assay [1] is “xxx (xxx > 100)”. In assay [2], the IC50 was 63.6 nM. In addition, the “Selectivity hEP2/hDP” value at human PGD receptor is reported as “xxx (xxx > 100)”.

For the compound `Cc1c(C(=O)NCCOCC2CC2)ccc2nn(CC3CCN(C(=O)c4ccc(Cl)cc4)CC3)cc12` [Example 84, 2-{[1-(4-chlorobenzoyl)piperidin-4-yl]methyl}-N-[2-(cyclopropylmethoxy)ethyl]-4-methyl-2H-indazol-5-carboxamide], the “Selectivity hEP2/hEP4” value in assay [1] is recorded as “xxx (xxx > 100)”. Besides, the half-maximal inhibitory concentration (IC50) in assay [2] turned out to be 19.2 nM. The “Selectivity hEP2/hDP” value at human PGD receptor is given as “xxx (xxx > 100)”.

Turning to `[2H]C([2H])([2H])OC([2H])([2H])C([2H])([2H])NC(=O)c1ccc2nn(CC3CCN(C(=O)c4ccc(Oc5ccc(F)cc5)cc4)CC3)cc2c1C` [Example 116, 2-({1-[4-(4-fluoro-phenoxy)benzoyl]-piperidin-4-yl}methyl)-4-methyl-N-(2-[^2H3]-methyloxy[^2H4]ethyl)-2H-indazol-5-carboxamide], in assay [1], the “Selectivity hEP2/hEP4” value is reported as “xxx (xxx > 100)”. Moreover, in assay [2], the IC50 was 5.52 nM. Also, the “Selectivity hEP2/hDP” value on human PGD receptor was “xxx (xxx > 100)”.

For the compound `COc1cc(F)ccc1-c1ccc(C(=O)N2CCC(Cn3cc4c(C)c(C(=O)NCC(F)(F)F)ccc4n3)CC2)cc1` [Example 320, 2-({1-[(4′-fluoro-2′-methoxybiphenyl-4-yl)carbonyl]piperidin-4-yl}methyl)-4-methyl-N-(2,2,2-trifluoroethyl)-2H-indazol-5-carboxamide], the “Selectivity hEP2/hEP4” value in assay [1] is given as “xxx (xxx > 100)”. Besides, the IC50 in assay [2] came out at 15.6 nM. For the same compound, at human PGD receptor, the “Selectivity hEP2/hDP” value was “xxx (xxx > 100)”.

On to `Cc1c(C(=O)NCC(F)(F)F)ccc2nn(CC3CCN(C(=O)c4cc5cc(F)ccc5n4C)CC3)cc12` [Example 292, 2-({1-[(5-fluoro-1-methyl-1H-indol-2-yl)carbonyl]piperidin-4-yl}methyl)-4-methyl-N-(2,2,2-trifluoroethyl)-2H-indazol-5-carboxamide], for which the “Selectivity hEP2/hEP4” value in assay [1] is on record as “xxx (xxx > 100)”. The IC50 in assay [2] came to 20 nM. On human PGD receptor, the “Selectivity hEP2/hDP” value is given as “xxx (xxx > 100)”.

In the case of `Cc1c(C(=O)NCCN2CCOCC2)ccc2nn(CC3CCN(C(=O)c4ccc(C(F)(F)F)cc4)CC3)cc12` [Example 63, 4-methyl-N-(2-morpholinoethyl)-2-({1-[4-(trifluoromethyl)benzoyl]piperidin-4-yl}methyl)-2H-indazol-5-carboxamide], the “Selectivity hEP2/hEP4” value in assay [1] is “xx (xx: 10-100)”. In addition, the IC50 in assay [2] is 1440 nM. The “Selectivity hEP2/hDP” value on human PGD receptor is on record as “xx (xx: 10-100)”.

For the compound `Cc1c(C(=O)NCCC#N)ccc2nn(CC3CCN(C(=O)c4ccc(Cl)cc4)CC3)cc12` [Example 400, 2-{[1-(4-chlorobenzoyl)piperidin-4-yl]methyl}-N-(2-cyanoethyl)-4-methyl-2H-indazol-5-carboxamide], the “Selectivity hEP2/hEP4” value in assay [1] was “xxx (xxx > 100)”. Further, in assay [2], the IC50 amounted to 56.1 nM. Also, the “Selectivity hEP2/hDP” value at human PGD receptor is reported as “xxx (xxx > 100)”.

As to `Cc1c(C(=O)NCCC#N)ccc2nn(CC3CCN(C(=O)c4ccc(-c5ccc(F)cc5)cc4)CC3)cc12` [Example 407, N-(2-cyanoethyl)-2-({1-[(4′-fluorobiphenyl-4-yl)carbonyl]piperidin-4-yl}-methyl)-4-methyl-2H-indazol-5-carboxamide], the “Selectivity hEP2/hEP4” value in assay [1] is recorded as “xxx (xxx > 100)”. Besides, the IC50 in assay [2] came out at 11.6 nM. The “Selectivity hEP2/hDP” value on human PGD receptor is on record as “xxx (xxx > 100)”.

Consider `Cc1cc2nn(CC3CN(C(=O)c4ccc(Cl)cc4)C3)cc2cc1C(=O)NCCSC(F)(F)F` [Example 189, 2-{[1-(4-chlorobenzoyl)azetidin-3-yl]methyl}-6-methyl-N-{2-[(trifluoromethyl)sulphanyl]ethyl}-2H-indazol-5-carboxamide], for which the “Selectivity hEP2/hEP4” value in assay [1] is recorded as “xxx (xxx > 100)”. For the same compound, the IC50 in assay [2] is 33.6 nM. Further, the “Selectivity hEP2/hDP” value at human PGD receptor was “xxx (xxx > 100)”.

For `Cc1c(C(=O)NCCN2CCC(F)(F)C2)ccc2nn(CC3CCN(C(=O)c4ccc(S(F)(F)(F)(F)F)cc4)CC3)cc12` [Example 68, N-[2-(3,3-difluoropyrrolidin-1-yl)ethyl]-4-methyl-2-({1-[4-(pentafluoro-λ^6-sulphanyl)benzoyl]piperidin-4-yl}methyl)-2H-indazol-5-carboxamide], the “Selectivity hEP2/hEP4” value in assay [1] is listed as “xxx (xxx > 100)”. Further, the IC50 in assay [2] was 17.7 nM. The “Selectivity hEP2/hDP” value at human PGD receptor is recorded as “xxx (xxx > 100)”.

On to `Cc1c(C(=O)NCC(F)(F)F)ccc2nn(CC3CN(C(=O)c4ccc(Oc5ccc(F)cc5)cc4)C3)cc12` [Example 160, 2-({1-[4-(4-fluorophenoxy)benzoyl]azetidin-3-yl}methyl)-4-methyl-N-(2,2,2-trifluoroethyl)-2H-indazol-5-carboxamide], for which the “Selectivity hEP2/hEP4” value in assay [1] is given as “xxx (xxx > 100)”. The IC50 in assay [2] worked out at 82.9 nM. In addition, the “Selectivity hEP2/hDP” value on human PGD receptor was “xxx (xxx > 100)”.

Regarding `COCCNC(=O)c1ccc2nn(CC3CN(C(=O)c4ccc(SC(F)(F)F)cc4)C3)cc2c1OC` [Example 215, 4-methoxy-N-(2-methoxyethyl)-2-[(1-{4-[(trifluoromethyl)sulphanyl]benzoyl}azetidin-3-yl)methyl]-2H-indazol-5-carboxamide], the “Selectivity hEP2/hEP4” value in assay [1] is “xxx (xxx > 100)”. The IC50 in assay [2] stood at 39 nM. Besides, the “Selectivity hEP2/hDP” value at human PGD receptor is listed as “xxx (xxx > 100)”.

With `COCCNC(=O)c1ccc2nn(CC3CCN(C(=O)c4ccc(Oc5ccncc5)cc4)CC3)cc2c1C` [Example 51, N-(2-methoxyethyl)-4-methyl-2-({1-[4-(pyridyloxy)benzoyl]piperidin-4-yl}-methyl)-2H-indazol-5-carboxamide], the “Selectivity hEP2/hEP4” value in assay [1] is listed as “xxx (xxx > 100)”. Also, in assay [2], the IC50 was 60 nM. Also, on human PGD receptor, the “Selectivity hEP2/hDP” value is “xxx (xxx > 100)”.

On to `Cc1ncc(-c2ccc(C(=O)N3CCC(Cn4cc5c(C)c(C(=O)NCC(F)(F)F)ccc5n4)CC3)cc2)cn1` [Example 327, 4-methyl-2-({1-[4-(2-methylpyrimidin-5-yl)benzoyl]piperidin-4-yl}methyl)-N-(2,2,2-trifluoroethyl)-2H-indazol-5-carboxamide], for which the “Selectivity hEP2/hEP4” value in assay [1] is “xx (xx: 10-100)”. Also, the IC50 in assay [2] was 1210 nM. The “Selectivity hEP2/hDP” value on human PGD receptor is “xx (xx: 10-100)”.
